Laboratory results taken from US9695155B2, “Herbicidal substituted pyrimidinyloxy benzene compounds” (E. I. DU PONT DE NEMOURS AND COMPANY, priority 2013, dated 2017).

What was measured:
pigweed [1] = experiment: Test C preemergence; type: in vivo, Amaranthus retroflexus; conditions: Amaranthus retroflexus, pre-emergence
Procedure, shortened: (§1)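 Seeds were sown in loam–sand blend and sprayed preemergence, while plants at 1- to 4-leaf stage (2–18 cm) in peat-based medium received postemergence sprays; test chemicals were formulated in a non-phytotoxic solvent with surfactant. After 13–15 days in a greenhouse, injury was rated visually against controls, 0 (no effect) to 100 (complete control).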

soybean = experiment: Test C postemergence; type: in vivo, Glycine max; conditions: Glycine max, post-emergence
Procedure, shortened: as §1

kochia = experiment: Test C postemergence; type: in vivo, Kochia scoparia; conditions: Bassia scoparia, post-emergence
Procedure, shortened: as §1

lambsquarters [2] = experiment: Test C postemergence; type: in vivo, Chenopodium album; conditions: Chenopodium album, post-emergence
Procedure, shortened: as §1

blackgrass = experiment: Test C postemergence; type: in vivo, Alopecurus myosuroides; conditions: Alopecurus myosuroides, post-emergence
Procedure, shortened: as §1

wheat, winter = experiment: Test C preemergence; type: in vivo, Triticum aestivum; conditions: Triticum aestivum, pre-emergence
Procedure, shortened: as §1

yellow nutsedge = experiment: Test C preemergence; type: in vivo, Cyperus esculentus; conditions: Cyperus, pre-emergence
Procedure, shortened: as §1

rice = experiment: Test B flooded paddy test; type: in vivo, Oryza sativa; conditions: Oryza sativa; Flood, 250 g ai/ha; 0 to 100 scale where 0 is no effect and 100 is complete control; read-out: Plant response rating, Rice
Procedure, shortened: (§2)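 Plants at 2-leaf stage; pots flooded to 3 cm above soil and compound applied directly into paddy water, depth held throughout. After 13 to 15 days in greenhouse, visual rating versus controls on 0 (no effect) to 100 (complete control) scale.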

Italian ryegrass = experiment: Test C postemergence; type: in vivo, Lolium multiflorum; conditions: Lolium multiflorum, post-emergence
Procedure, shortened: as §1

lambsquarters [3] = experiment: Test C preemergence; type: in vivo, Chenopodium album; conditions: Chenopodium album, pre-emergence
Procedure, shortened: as §1

Heteranthera limosa = experiment: Test B flooded paddy test; type: in vivo; conditions: Heteranthera limosa, Flood, 250 g ai/ha; 0 to 100 scale where 0 is no effect and 100 is complete control; read-out: Plant response rating, Ducksalad
Procedure, shortened: as §2

pigweed [4] = experiment: Test C postemergence; type: in vivo, Amaranthus retroflexus; conditions: Amaranthus retroflexus, post-emergence
Procedure, shortened: as §1

morningglory = experiment: Test A postemergence; type: in vivo, Ipomoea spp.; conditions: Ipomoea, post-emergence, 240 h
Procedure, shortened: (§3)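 Injury scores run from 0, no effect, to 100, complete control, judged by eye against untreated plants roughly 10 days after treatment. Chemicals carried a surfactant in a non-phytotoxic solvent and went onto loam–sand soil preemergence or onto one- to two-leaf seedlings postemergence.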

corn = experiment: Test A preemergence; type: in vivo, Zea mays; conditions: Zea mays, pre-emergence, 240 h, read-out: Corn plant response rating
Procedure, shortened: as §3

SMILES: Clc1cnc(Oc2ccccc2-n2cc(Br)cn2)nc1 [Compound 7, 2-[2-(4-bromo-1H-pyrazol-1-yl)phenoxy]-5-chloropyrimidine]
- pest or weed control at 62 g/ha (pigweed [1]; 62 g ai/ha, preemergence, scale 0 (no effect) to 100 (complete control), read-out: Pigweed plant response rating): 100%
- pest or weed control at 125 g/ha (pigweed [1]; 125 g ai/ha, preemergence, scale 0 (no effect) to 100 (complete control), read-out: Pigweed plant response rating): 100%
- pest or weed control at 250 g/ha (pigweed [1]; 250 g ai/ha, preemergence, scale 0 (no effect) to 100 (complete control), read-out: Pigweed plant response rating): 100%
- pest or weed control at 31 g/ha (pigweed [1]; Preemergence, 31 g ai/ha, scale 0 to 100, 0 no effect, 100 complete control, read-out: Plant response rating, Pigweed): 100%
- Soybean plant response rating (crop injury, 0-100 scale) at 125 g/ha (soybean; 125 g ai/ha, postemergence, read-out: Plant response rating (0 to 100), Soybean): 98%
- Soybean plant response rating (crop injury, 0-100 scale) at 250 g/ha (soybean; 250 g ai/ha, postemergence): 98%
- Soybean plant response rating (crop injury, 0-100 scale) at 31 g/ha (soybean; Postemergence, 31 g ai/ha, scale 0 to 100 (0 no effect, 100 complete control), 13 to 15 days): 85%
- Soybean plant response rating (crop injury, 0-100 scale) at 62 g/ha (soybean; Postemergence, 62 g ai/ha, scale 0 to 100 (0 no effect, 100 complete control)): 98%
- pest or weed control at 125 g/ha (kochia; 125 g ai/ha, postemergence, read-out: Plant response rating (0 to 100), Kochia): 100%
- pest or weed control at 250 g/ha (kochia; 250 g ai/ha, postemergence, read-out: Plant response rating (0 to 100), Kochia): 100%
- pest or weed control at 31 g/ha (kochia; Postemergence, 31 g ai/ha, scale 0 to 100 (0 no effect, 100 complete control), 13 to 15 days, read-out: Plant response rating, Kochia): 98%
- pest or weed control at 62 g/ha (kochia; Postemergence, 62 g ai/ha, scale 0 to 100 (0 no effect, 100 complete control), read-out: Plant response rating, Kochia): 98%
- pest or weed control at 125 g/ha (lambsquarters [2]; 125 g ai/ha, postemergence, read-out: Plant response rating (0 to 100), Lambsquarters): 98%
- pest or weed control at 250 g/ha (lambsquarters [2]; 250 g ai/ha, postemergence, read-out: Plant response rating (0 to 100), Lambsquarters): 98%
- pest or weed control at 31 g/ha (lambsquarters [2]; Postemergence, 31 g ai/ha, scale 0 to 100 (0 no effect, 100 complete control), 13 to 15 days, read-out: Plant response rating, Lambsquarters): 60%
- pest or weed control at 62 g/ha (lambsquarters [2]; Postemergence, 62 g ai/ha, scale 0 to 100 (0 no effect, 100 complete control), read-out: Plant response rating, Lambsquarters): 98%
- pest or weed control at 125 g/ha (blackgrass; 125 g ai/ha, postemergence, read-out: Plant response rating (0 to 100), Blackgrass): 45%
- pest or weed control at 250 g/ha (blackgrass; 250 g ai/ha, postemergence, read-out: Plant response rating (0 to 100), Blackgrass): 50%
- pest or weed control at 31 g/ha (blackgrass; Postemergence, 31 g ai/ha, scale 0 to 100 (0 no effect, 100 complete control), 13 to 15 days, read-out: Plant response rating, Blackgrass): 5%
- pest or weed control at 62 g/ha (blackgrass; Postemergence, 62 g ai/ha, scale 0 to 100 (0 no effect, 100 complete control), read-out: Plant response rating, Blackgrass): 10%
- plant injury at 62 g/ha (wheat, winter; 62 g ai/ha, preemergence, scale 0 (no effect) to 100 (complete control), read-out: Wheat plant response rating): 5%
- plant injury at 125 g/ha (wheat, winter; 125 g ai/ha, preemergence, scale 0 (no effect) to 100 (complete control), read-out: Wheat plant response rating): 10%
- plant injury at 250 g/ha (wheat, winter; 250 g ai/ha, preemergence, scale 0 (no effect) to 100 (complete control), read-out: Wheat plant response rating): 40%
- plant injury at 31 g/ha (wheat, winter; Preemergence, 31 g ai/ha, scale 0 to 100, 0 no effect, 100 complete control, read-out: Plant response rating, Wheat): 0%
- pest or weed control at 62 g/ha (yellow nutsedge; 62 g ai/ha, preemergence, scale 0 (no effect) to 100 (complete control), read-out: Nutsedge, Yellow plant response rating): 0%
- pest or weed control at 125 g/ha (yellow nutsedge; 125 g ai/ha, preemergence, scale 0 (no effect) to 100 (complete control), read-out: Nutsedge, Yellow plant response rating): 15%
- pest or weed control at 250 g/ha (yellow nutsedge; 250 g ai/ha, preemergence, scale 0 (no effect) to 100 (complete control), read-out: Nutsedge, Yellow plant response rating): 15%
- pest or weed control at 31 g/ha (yellow nutsedge; Preemergence, 31 g ai/ha, scale 0 to 100, 0 no effect, 100 complete control, read-out: Plant response rating, Nutsedge, Yellow): 0%
- plant injury at 250 g/ha (rice): 20%
- pest or weed control at 125 g/ha (Italian ryegrass; 125 g ai/ha, postemergence, read-out: Plant response rating (0 to 100), Ryegrass, Italian): 10%
- pest or weed control at 250 g/ha (Italian ryegrass; 250 g ai/ha, postemergence, read-out: Plant response rating (0 to 100), Ryegrass, Italian): 40%
- pest or weed control at 31 g/ha (Italian ryegrass; Postemergence, 31 g ai/ha, scale 0 to 100 (0 no effect, 100 complete control), 13 to 15 days, read-out: Plant response rating, Ryegrass, Italian): 5%
- pest or weed control at 62 g/ha (Italian ryegrass; Postemergence, 62 g ai/ha, scale 0 to 100 (0 no effect, 100 complete control), read-out: Plant response rating, Ryegrass, Italian): 10%
- pest or weed control at 62 g/ha (lambsquarters [3]; 62 g ai/ha, preemergence, scale 0 (no effect) to 100 (complete control), read-out: Lambsquarters plant response rating): 80%
- pest or weed control at 125 g/ha (lambsquarters [3]; 125 g ai/ha, preemergence, scale 0 (no effect) to 100 (complete control), read-out: Lambsquarters plant response rating): 85%
- pest or weed control at 250 g/ha (lambsquarters [3]; 250 g ai/ha, preemergence, scale 0 (no effect) to 100 (complete control), read-out: Lambsquarters plant response rating): 95%
- pest or weed control at 31 g/ha (lambsquarters [3]; Preemergence, 31 g ai/ha, scale 0 to 100, 0 no effect, 100 complete control, read-out: Plant response rating, Lambsquarters): 80%
- pest or weed control at 250 g/ha (Heteranthera limosa): 80%
- pest or weed control at 125 g/ha (pigweed [4]; 125 g ai/ha, postemergence, read-out: Plant response rating (0 to 100), Pigweed): 100%
- pest or weed control at 250 g/ha (pigweed [4]; 250 g ai/ha, postemergence, read-out: Plant response rating (0 to 100), Pigweed): 100%
- pest or weed control at 31 g/ha (pigweed [4]; Postemergence, 31 g ai/ha, scale 0 to 100 (0 no effect, 100 complete control), 13 to 15 days, read-out: Plant response rating, Pigweed): 100%
- pest or weed control at 62 g/ha (pigweed [4]; Postemergence, 62 g ai/ha, scale 0 to 100 (0 no effect, 100 complete control), read-out: Plant response rating, Pigweed): 100%
- pest or weed control at 125 g/ha (morningglory; 125 g ai/ha, 0 to 100 scale where 0 is no effect and 100 is complete control, read-out: Plant response rating, Morningglory): 70%
- pest or weed control at 500 g/ha (morningglory; 500 g ai/ha, 0 to 100 scale, 0 no effect, 100 complete control, read-out: Plant response rating Morningglory): 100%
- plant injury at 125 g/ha (corn; 125 g ai/ha, 0 to 100 scale where 0 is no effect and 100 is complete control): 0%
- plant injury at 500 g/ha (corn; 500 g ai/ha, 0 to 100 scale, 0 no effect, 100 complete control, approx. 10 days): 30%
